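Each compound was tested at five concentrations against cells in 96-well plates for 48 hours. Here, GI50 denotes the concentration required for 50% inhibition of growth.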 Active and inactive are the calls of the source. Cut-off read from the data, not from the text of the source: active = GI50 up to about 1.1 µM and inactive = higher.
Assays:
Test in all cases: DTP human tumour cell line panel, 48 h
[1] = test system: SF-539
[2] = test system: HCC 2998
[3] = test system: RPMI-8226
[4] = test system: KM-20L2
[5] = test system: SW-620
[6] = test system: 786-0
[7] = test system: HT-29
[8] = test system: U-251
[9] = test system: CCRF-CEM
[10] = test system: NCI-H522
[11] = test system: NCI-H23
[12] = test system: UACC-62
[13] = test system: Malme-3M
[14] = test system: TK-10
[15] = test system: SR
[16] = test system: LOX IMVI
[17] = test system: MDA-N
[18] = test system: NCI/ADR-RES
[19] = test system: MDA-MB-435
[20] = test system: BT-549

| SMILES | GI50 [1] | GI50 [2] | GI50 [3] | GI50 [4] | GI50 [5] | GI50 [6] | GI50 [7] | GI50 [8] | GI50 [9] | GI50 [10] | GI50 [11] | GI50 [12] | GI50 [13] | GI50 [14] | GI50 [15] | GI50 [16] | GI50 [17] | GI50 [18] | GI50 [19] | GI50 [20] |
| --- | --- | --- | --- | --- | --- | --- | --- | --- | --- | --- | --- | --- | --- | --- | --- | --- | --- | --- | --- | --- |
| COc1ccc2nc(NC(=O)C(=O)CC(=O)c3ccc([N+](=O)[O-])cc3)sc2c1 | > 100 µM (inactive) | > 100 µM (inactive) | > 100 µM (inactive) | > 100 µM (inactive) | > 100 µM (inactive) | > 100 µM (inactive) | > 100 µM (inactive) | > 100 µM (inactive) | > 100 µM (inactive) | > 100 µM (inactive) | > 100 µM (inactive) | > 100 µM (inactive) | > 100 µM (inactive) | – | – | – | – | – | – | – |
| CC(C)C(=O)/C=C/c1ccc(Cl)c(Cl)c1 | 13.2 µM (inactive) | 18.8 µM (inactive) | 13.8 µM (inactive) | 19.2 µM (inactive) | 15.6 µM (inactive) | 14.5 µM (inactive) | 19.7 µM (inactive) | 17 µM (inactive) | 4.53 µM (inactive) | 13.4 µM (inactive) | 18.3 µM (inactive) | 17.3 µM (inactive) | – | 14.2 µM (inactive) | 14.5 µM (inactive) | – | – | – | – | – |
| Cc1c2cc[n+](C)cc2c(C)c2c1[nH]c1ccc(O)c(OCC(F)(F)F)c12 | 2.04 µM (inactive) | 4.55 µM (inactive) | 2.22 µM (inactive) | 7.13 µM (inactive) | 6.67 µM (inactive) | 1.46 µM (inactive) | 9.82 µM (inactive) | 0.301 µM (active) | 4.97 µM (inactive) | 1.01 µM (active) | 0.984 µM (active) | 5.66 µM (inactive) | 1.63 µM (inactive) | 11.2 µM (inactive) | – | 13 µM (inactive) | – | – | – | – |
| NNC(=O)CC(=O)Nc1ccccc1F | > 100 µM (inactive) | > 100 µM (inactive) | > 100 µM (inactive) | > 100 µM (inactive) | > 100 µM (inactive) | > 100 µM (inactive) | > 100 µM (inactive) | > 100 µM (inactive) | > 100 µM (inactive) | > 100 µM (inactive) | > 100 µM (inactive) | > 100 µM (inactive) | > 100 µM (inactive) | – | – | > 100 µM (inactive) | – | – | – | – |
| COc1cc(C)cc2c1C(=O)C(Br)=CC2=O | 15.2 µM (inactive) | 19.5 µM (inactive) | 3.13 µM (inactive) | – | 1.89 µM (inactive) | 3.92 µM (inactive) | 8.22 µM (inactive) | 19.5 µM (inactive) | 0.867 µM (active) | 2.03 µM (inactive) | 15.5 µM (inactive) | 9.71 µM (inactive) | 2.1 µM (inactive) | 2.49 µM (inactive) | 4.57 µM (inactive) | 8.59 µM (inactive) | 3.56 µM (inactive) | 27.3 µM (inactive) | 2.29 µM (inactive) | 11.1 µM (inactive) |
| O=c1oc2ccccc2[n+]([O-])c1-c1ccccc1 | > 100 µM (inactive) | > 100 µM (inactive) | > 100 µM (inactive) | > 100 µM (inactive) | > 100 µM (inactive) | > 100 µM (inactive) | > 100 µM (inactive) | > 100 µM (inactive) | > 100 µM (inactive) | 36.6 µM (inactive) | > 100 µM (inactive) | > 100 µM (inactive) | > 100 µM (inactive) | > 100 µM (inactive) | – | > 100 µM (inactive) | – | – | – | – |
| CCN(CC)CCC(=O)N1CCc2c([nH]c3ccccc23)C1c1cccnc1 (stereo not given) | > 100 µM (inactive) | > 100 µM (inactive) | > 100 µM (inactive) | > 100 µM (inactive) | > 100 µM (inactive) | > 100 µM (inactive) | > 100 µM (inactive) | > 100 µM (inactive) | > 100 µM (inactive) | > 100 µM (inactive) | > 100 µM (inactive) | > 100 µM (inactive) | – | > 100 µM (inactive) | > 100 µM (inactive) | > 100 µM (inactive) | – | – | – | – |
| COc1cccc2c1C1=CC(=O)CCC1C(C)(C)O2 (stereo not given) | > 100 µM (inactive) | – | 20.6 µM (inactive) | > 100 µM (inactive) | 13.4 µM (inactive) | > 100 µM (inactive) | > 100 µM (inactive) | 45.3 µM (inactive) | 56.4 µM (inactive) | > 100 µM (inactive) | > 100 µM (inactive) | > 100 µM (inactive) | > 100 µM (inactive) | > 100 µM (inactive) | – | 35.7 µM (inactive) | – | – | – | – |
| CC(C)(C)NCCC(O)c1cc(C(F)(F)F)nc2c(C(F)(F)F)cccc12 (stereo not given) | 14.7 µM (inactive) | 2.43 µM (inactive) | 4.58 µM (inactive) | – | 18 µM (inactive) | 6.98 µM (inactive) | 6.08 µM (inactive) | 7.53 µM (inactive) | 5.57 µM (inactive) | 11.7 µM (inactive) | 4.26 µM (inactive) | 12.6 µM (inactive) | 11.6 µM (inactive) | 12.2 µM (inactive) | 3.62 µM (inactive) | 1.12 µM (inactive) | 11.5 µM (inactive) | 5.97 µM (inactive) | 12.9 µM (inactive) | 8.11 µM (inactive) |
| CC(SC(=S)N1CCOCC1)c1cc2oc(=O)n(C)c2cc1Cl (stereo not given) | 76 µM (inactive) | > 100 µM (inactive) | 58.2 µM (inactive) | > 100 µM (inactive) | > 10 µM (inactive) | > 100 µM (inactive) | > 100 µM (inactive) | > 100 µM (inactive) | 19.8 µM (inactive) | – | > 100 µM (inactive) | > 100 µM (inactive) | > 100 µM (inactive) | > 100 µM (inactive) | 30.4 µM (inactive) | 40.9 µM (inactive) | – | – | – | – |
| COc1ccc(C/C(=N/O)C(=O)NCCc2cc(Br)c(OCCCN(C)C)c(Br)c2)cc1Br [APLYSAMINE 2] | 13.6 µM (inactive) | 14.1 µM (inactive) | – | 18.5 µM (inactive) | 16.6 µM (inactive) | 20 µM (inactive) | 5.92 µM (inactive) | 17.7 µM (inactive) | – | 16.4 µM (inactive) | > 10 µM (inactive) | – | 27.6 µM (inactive) | 29.8 µM (inactive) | – | 16.2 µM (inactive) | – | – | – | – |
| CCOC(=O)C(C(O)c1ccc([N+](=O)[O-])cc1)P(=O)(OCC)OCC (stereo not given) | > 100 µM (inactive) | > 100 µM (inactive) | 32.9 µM (inactive) | > 100 µM (inactive) | 57.3 µM (inactive) | > 100 µM (inactive) | > 100 µM (inactive) | > 100 µM (inactive) | 35.5 µM (inactive) | 29.2 µM (inactive) | > 100 µM (inactive) | 52.1 µM (inactive) | > 100 µM (inactive) | > 100 µM (inactive) | – | 72.9 µM (inactive) | – | – | – | – |
| CC(C)N1CC2CC(CN(C(=O)c3ccc(Cl)cc3)C2)C1 | > 100 µM (inactive) | – | > 100 µM (inactive) | > 100 µM (inactive) | > 100 µM (inactive) | > 100 µM (inactive) | > 100 µM (inactive) | > 100 µM (inactive) | > 100 µM (inactive) | > 100 µM (inactive) | > 100 µM (inactive) | > 100 µM (inactive) | > 100 µM (inactive) | > 100 µM (inactive) | – | > 100 µM (inactive) | – | – | – | – |
| C=C1C(=O)OC2C1C(OC(=O)/C(=C/C)COC(C)=O)CC1(CO1)C1C(OC(=O)/C(=C/C)CO)C=C(C)C21 (stereo not given) | 5.81 µM (inactive) | 1.92 µM (inactive) | 0.655 µM (active) | 2.52 µM (inactive) | 0.736 µM (active) | 1.66 µM (inactive) | 1.64 µM (inactive) | 15.1 µM (inactive) | 0.333 µM (active) | – | 1.63 µM (inactive) | 1.59 µM (inactive) | 1.78 µM (inactive) | 2.3 µM (inactive) | – | 3.19 µM (inactive) | – | – | – | – |
| C=CC[C@@]1(OC(C)=O)C(=O)C(=O)OC1C1COC(C)(C)O1 (stereo not given in full) | 25.1 µM (inactive) | 20.7 µM (inactive) | 12.4 µM (inactive) | – | 11.9 µM (inactive) | 11.7 µM (inactive) | 19.3 µM (inactive) | 16.9 µM (inactive) | 6.04 µM (inactive) | 6.12 µM (inactive) | 20.3 µM (inactive) | 16.5 µM (inactive) | 17.2 µM (inactive) | 16.3 µM (inactive) | 15.2 µM (inactive) | 6.17 µM (inactive) | 16.5 µM (inactive) | 25.3 µM (inactive) | 16.8 µM (inactive) | 21.1 µM (inactive) |
| CN1CCC23c4c5ccc(Oc6nnnn6-c6ccccc6)c4OC2c2[nH]c4ccccc4c2CC3(O)C1C5 (stereo not given) | 2.62 µM (inactive) | 1.81 µM (inactive) | 2.22 µM (inactive) | – | 2.44 µM (inactive) | 1.77 µM (inactive) | 2.38 µM (inactive) | 1.85 µM (inactive) | 2.08 µM (inactive) | 2 µM (inactive) | 16.3 µM (inactive) | 1.8 µM (inactive) | 1.67 µM (inactive) | 1.87 µM (inactive) | 1.64 µM (inactive) | 1.89 µM (inactive) | 1.73 µM (inactive) | 5.37 µM (inactive) | 4.01 µM (inactive) | 16.5 µM (inactive) |
| COC(=O)C1(C#N)C(C)(C)N=C(c2ccccc2)C12CCCCC2 (stereo not given) | > 100 µM (inactive) | > 100 µM (inactive) | 63.4 µM (inactive) | – | > 100 µM (inactive) | > 100 µM (inactive) | > 100 µM (inactive) | > 100 µM (inactive) | > 100 µM (inactive) | > 100 µM (inactive) | > 100 µM (inactive) | 76.9 µM (inactive) | > 100 µM (inactive) | > 100 µM (inactive) | 14.7 µM (inactive) | > 100 µM (inactive) | > 100 µM (inactive) | > 100 µM (inactive) | > 100 µM (inactive) | > 100 µM (inactive) |
